Data: patent US9845512B2, “Screening assay employing Dex and GDF8” (RIGEL PHARMACEUTICALS, INC., priority 2010, dated 2017)

Tested on: endogenous MuRF1
Assay: Endogenous MuRF1 expression in HepG2 cells by Taqman RT-PCR
Type: cell-based, human
Protocol: Cultured HepG2 cells were exposed to 1 μM dexamethasone, 10 μM dexamethasone, 100 ng/ml GDF8, 100 ng/ml TGFβ1, and 10 μM dexamethasone+100 ng/ml GDF8, and expression of endogenous MuRF1 was evaluated by RT-PCR using Taqman RT-PCR assay. […] 10 μM dexamethasone induced expression of endogenous MuRF1 2.5× over the no treatment control, and 100 ng/ml GDF8 induced expression of endogenous MuRF1 1.8× over the no treatment control.
MuRF1 induction is observable at four hours of treatment, as compared to controls.

| Compound | induction of endogenous MuRF1 expression over the no treatment control (10 μM dexamethasone alone) [×] | induction of endogenous MuRF1 expression over the no treatment control (100 ng/ml GDF8 alone) [×] |
| --- | --- | --- |
| C[C@@H]1C[C@H]2[C@@H]3CCC4=CC(=O)C=C[C@]4(C)[C@@]3(F)[C@@H](O)C[C@]2(C)[C@@]1(O)C(=O)CO [dexamethasone] | 2.5 |  |
| GDF8: secreted TGFβ protein family member that inhibits muscle differentiation and growth; ligand for the myostatin receptor |  | 1.8 |
